Experimental data as given in patent publication US20080045504A1, “Benzonitrile Derivatives to Treat Musculoskeletal Frailty” (PFIZER PRODUCTS INC., priority 2004, published 2008).
Marks after values point to notes of the source that are not given here.

What was measured:
[1] = test system: aged ovariectomized (OVX) female rat; test: Effect on body weight, body composition and bone density in the aged ovariectomized female rat; type: in vivo, Sprague-Dawley rat; conditions: OVX rats
Method: Effect of Selective Androgen Receptor Modulator on Body Weight. Body Composition and Bone Density in the Aged Intact and Ovariectomized Female Rat The purpose of this study is to test the effects of test compound in aged intact or ovariectomized (OVX) female rat model.
Sprague-Dawley female rats were sham-operated or OVX at 18 months of age, while a group of rats was necropsied at day 0 to serve as baseline controls. One day post-surgery, the rats were treated with either vehicle or test compound. The vehicle or test compound was administered twice a week (Tuesday and Friday) by subcutaneous injection (s.c.), with the test compound being administered at an average dose of 10 milligrams per kilogram of body weight per day (10 mg/kg/day).
All rats were given s.c. injection of 10 mg/kg of calcein (Sigma, St. Louis, Mo.) for fluorescent bone label 2 and 12 days before necropsy. On the day of necropsy, all rats under ketamine/xylazine anesthesia were weighed and underwent dual-energy X-ray absorptiometry (DXA, QDR-4500/W, Hologic Inc., Waltham, Mass.) equipped with Rat Whole Body Scan software for lean and fat body mass determination. The rats were necropsied, then autopsied and blood was obtained by cardiac puncture. The distal femoral metaphysis and femoral shafts from each rat were analyzed by peripheral quantitative computerized tomography (pQCT), and volumetric total, trabecular and cortical bone mineral content and density were determined.
Peripheral Quantitative Computerized Tomography (pQCT) Analysis: Excised femurs were scanned by a pQCT X-ray machine (Stratec XCT Research M, Norland Medical Systems, Fort Atkinson, Wis.) with software version 5.40. A 1 millimeter (mm) thick cross section of the femur metaphysis was taken at 5.0 mm ([…], a primary cancellous bone site) and 13 mm (femoral shafts, a cortical bone site) proximal from the distal end with a voxel size of 0.10 mm. Cortical bone was defined and analyzed using contour mode 2 and cortical mode 4. An outer threshold setting of 340 mg/cm^3 was used to distinguish the cortical shell from soft tissue and an inner threshold of 529 mg/cm^3 to distinguish cortical bone along the endocortical surface. Trabecular bone was determined using peel mode 4 with a threshold of 655 mg/cm^3 to distinguish (sub)cortical from cancellous bone. An additional concentric peel of 1% of the defined cancellous bone was used to ensure that (sub)cortical bone was eliminated from the analysis. Volumetric content, density, and area were determined for both trabecular and cortical bone (Jamsa T. et al., Bone 23:155-161, 1998; Ke, H. Z. et al., Journal of Bone and Mineral Research, 16:765-773, 2001). Using the above setting, it was determined that the ex vivo precision of volumetric content, density and area of total bone, trabecular, and cortical regions ranged from 0.99% to 3.49% with repositioning.
The preceding protocol was carried out using the compound of Example 1 as the test compound. The vehicle employed in experimental groups II-IV was 100% sesame oil. The rats in groups II-IV were dosed s.c. twice a week (on Tuesday and Friday) with 0.3 ml and 0.4 ml. This dosing provided an average daily dose of 10 mg/kg/day of the compound of Example 1 for experimental group IV.
The values provided in Table 3 are the mean values±the standard error measurement. In Table 3 and the experimental protocol the following abbreviations or symbols had the following definitions. DFM: distal femoral metaphysis; FS: femoral shafts; g: grams; mg/cm^3: milligrams per cubic centimeter; mg/mm: milligrams per millimeter; a: p<0.05 vs. Baseline; b: p<0.05 vs. Sham; c: p<0.05 vs. OVX; mg/kg/day: milligrams per kilogram of body weight per day; and ml: milliliter.

[2] = test system: orchiectomized (ORX) immature male rat; test: Orchiectomized immature rat assay (levator ani and ventral prostate weights); type: in vivo, Sprague Dawley rat; conditions: 4 days, TP 10 mg/kg = 100%, ORX control = 0%; for % TP Control LA: levator ani weight; for % TP Control VP: ventral prostate weight
Method: All animal studies were performed in accordance with the Guide for Care and Use of Laboratory Animals (National Research Council, 1996). Twenty-one day old male Sprague Dawley rats were acquired from Taconic, Inc, Germantown, N.Y. Rats were housed five per cage at standard vivarium conditions ([…], 12-h light/dark cycle), with normal chow diet and tap water ad libitum. At 25 days of age, the rats underwent bilateral orchiectomy surgery (ORX) after sedation with 3-5% Isoflurane. Following the surgery, the animals were treated immediately by daily subcutaneous (s.c.) injection with vehicle (sesame oil), testosterone propionate (TP, 10 mg/kg) and test compounds. The dosage of test compound administered is in mg/kg. At the end of the 4 days of administrations, the animals were sacrificed in a carbon dioxide chamber, the ventral prostate (VP) and levator ani muscle complex (LA) were removed and weighed. The increase in the weights of VP or LA by TP was expressed as 100%, and the ORX control as baseline, 0%; the response of the test compounds was calculated as the percentage increase compared to TP.

[3] = test system: aged intact or orchidectomized (ORX) male rat; test: Effect on body weight, body composition and bone density in the aged intact and orchidectomized male rat; type: in vivo, SD rat
Method: The purpose of this study is to test the effects of test compound in aged intact or orchidectomized (ORX) male rat model.
Male SD rats at 11 months of age were sham-operated or ORX. One day post-surgery they were treated with test compound by subcutaneous injections (s.c.) at the average dose of 3 or 10 mg/kg per day for 8 weeks. The subcutaneous injections were given 2 times (Tuesday and Friday) per week with the first injection (Tuesday) at 9 or 30 mg/kg (in sesame oil, total 0.3 ml), and the second injection (Friday) at 12 or 40 mg/kg (in sesame oil, total 0.4 ml). All rats were injected subcutaneously with calcein at 10 mg/kg on 12 and 2 days before necropsy.

[4] = 10 mg/kg/day s.c. twice a week, DXA, mean ± SEM
[5] = 10 mg/kg/day s.c., distal femoral metaphysis, pQCT, mean ± SEM
[6] = 10 mg/kg/day s.c., femoral shafts, pQCT, mean ± SEM
[7] = 10 mg/kg/day, compared to OVX rats administered vehicle
[8] = Group II (sham, 3 mg/kg/d) compared to Group I (sham + vehicle)
[9] = sham and ORX rats, 3 or 10 mg/kg/d s.c. for 8 weeks
[10] = sham and ORX rats, 3 or 10 mg/kg/d s.c. for 8 weeks, dose dependant, except Group II

CC[C@H]1CCCCN1c1ccc(C#N)c(C(F)(F)F)c1 [Example 1, 4-(2-(S)-Ethyl-piperidin-1-yl)-2-trifluoromethyl-benzonitrile]
Body Weight ([1]; 10 mg/kg/day s.c. twice a week in sesame oil, mean ± SEM): 459 ± 10.7^b,c g | Fat Body Mass [1, 4]: 121.7 ± 7.9^c g | lean body mass [1, 4]: 319.0 ± 7.7^c g | Total Density of DFM [1, 5]: 602.2 ± 12.3^b mg/cm^3 | Trabecular Density of DFM [1, 5]: 310.4 ± 0.16 mg/mL | Cortical Content of FS [1, 6]: 11.8 ± 0.15^c mg/mm | Total Content of FS [1, 6]: 11.9 ± 0.16^c mg/mm | effect on body weight [1, 7]: negligible effect | effect on fat body mass [1, 7]: significantly decreased | effect on lean body mass [1, 7]: significantly increased | % TP Control LA ([2]; 3 mg/kg s.c.): 53% | % TP Control LA ([2]; 10 mg/kg s.c.): 93% | % TP Control LA ([2]; 30 mg/kg s.c.): 100% | % TP Control VP ([2]; 3 mg/kg s.c.): 11% | % TP Control VP ([2]; 10 mg/kg s.c.): 30% | % TP Control VP ([2]; 30 mg/kg s.c.): 33% | fat body mass [3, 8]: slight increase | lean body mass [3, 8]: slight decrease | prostate weight ([3]; Group II sham rats (3 mg/kg/d)): did not increase | prostate weight ([3]; Group III (sham, 10 mg/kg/d) compared to Group I): slight increase | prostate weight ([3]; ORX rats, 3 or 10 mg/kg/d, dose dependent): increased prostate weight in ORX rats to the level of sham controls | levitor anni weight [3, 9]: increased | total density in the femoral shaft (FS) [3, 9]: increased | trabecular density in the distal femoral metaphysis (DFM) [3, 9]: increased | fat body mass [3, 10]: decreased | lean body mass [3, 10]: increased
